Test results as given in the supplement of paper PMC10307832.

How the values were obtained:
Experiment in all cases: relative viability (nuclei count vs DMSO), 5 days (fraction); higher = more cells survive
Elesclomol = compound: CN(NC(=O)CC(=O)NN(C)C(=S)c1ccccc1)C(=S)c1ccccc1 [Elesclomol]
Procedure, shortened: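 Five library-drug doses spaced by √10 were pinned onto vehicle-anchored 1536-well plates of lung cancer cell lines that had been kept overnight at 37 °C. Cells went 5 days without medium change, then were fixed, permeabilised and Hoechst-stained together, imaged at 4× and counted by MetaXpress. Viability is the ratio of treated-well to vehicle-well nuclei, taken as a median over plates. Plates required control CV below 25% and at least one doubling.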

Elesclomol + Olaparib = compound: CN(NC(=O)CC(=O)NN(C)C(=S)c1ccccc1)C(=S)c1ccccc1 [Elesclomol] + O=C(c1cc(Cc2n[nH]c(=O)c3ccccc23)ccc1F)N1CCN(C(=O)C2CC2)CC1 [Olaparib] (partner 8 µM)
Procedure, shortened: (§1)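 Lung cancer cell lines, seeded in 1536-well plates, were treated the following day by pin tool with a single drug or with five library-drug doses (not always all listed) in √10 steps on top of a fixed anchor-drug dose. Cells were fixed and nuclei stained in one step after 5 days, and nuclei were counted. Relative viability is the nuclei count for treated wells divided by that for vehicle wells, reported as medians of duplicate plates.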

Elesclomol + Crizotinib = compound: CN(NC(=O)CC(=O)NN(C)C(=S)c1ccccc1)C(=S)c1ccccc1 [Elesclomol] + C[C@@H](Oc1cc(-c2cnn(C3CCNCC3)c2)cnc1N)c1c(Cl)ccc(F)c1Cl [Crizotinib] (partner 1 µM)
Procedure, shortened: as §1

Elesclomol + Alpelisib = compound: CN(NC(=O)CC(=O)NN(C)C(=S)c1ccccc1)C(=S)c1ccccc1 [Elesclomol] + Cc1nc(NC(=O)N2CCC[C@H]2C(N)=O)sc1-c1ccnc(C(C)(C)C(F)(F)F)c1 [Alpelisib] (partner 2 µM)
Procedure, shortened: as §1

Elesclomol + Dasatinib = compound: CN(NC(=O)CC(=O)NN(C)C(=S)c1ccccc1)C(=S)c1ccccc1 [Elesclomol] + Cc1nc(Nc2ncc(C(=O)Nc3c(C)cccc3Cl)s2)cc(N2CCN(CCO)CC2)n1 [Dasatinib] (partner 0.075 µM)
Procedure, shortened: as §1

Cell Line	relative viability (Elesclomol; 0.003162 µM)	relative viability (Elesclomol; 0.01 µM)	relative viability (Elesclomol; 0.03162 µM)	relative viability (Elesclomol; 0.1 µM)	relative viability (Elesclomol + Olaparib; first compound 0.003162 µM)	relative viability (Elesclomol + Olaparib; first compound 0.01 µM)	relative viability (Elesclomol + Olaparib; first compound 0.03162 µM)	relative viability (Elesclomol + Olaparib; first compound 0.1 µM)	relative viability (Elesclomol + Crizotinib; first compound 0.003162 µM)	relative viability (Elesclomol + Crizotinib; first compound 0.01 µM)	relative viability (Elesclomol + Crizotinib; first compound 0.03162 µM)	relative viability (Elesclomol + Crizotinib; first compound 0.1 µM)	relative viability (Elesclomol + Alpelisib; first compound 0.003162 µM)	relative viability (Elesclomol + Alpelisib; first compound 0.01 µM)	relative viability (Elesclomol + Alpelisib; first compound 0.03162 µM)	relative viability (Elesclomol + Alpelisib; first compound 0.1 µM)	relative viability (Elesclomol + Dasatinib; first compound 0.003162 µM)	relative viability (Elesclomol + Dasatinib; first compound 0.01 µM)	relative viability (Elesclomol + Dasatinib; first compound 0.03162 µM)	relative viability (Elesclomol + Dasatinib; first compound 0.1 µM)
NCI-H1437	0.879	0.635	0.504	0.47	0.555	0.461	0.379	0.359	0.769	0.457	0.504	0.329	0.886	0.61	0.341	0.283	0.246	0.18	0.116	0.128
NCI-H1651	0.903	0.954	0.612	0.369	0.185	0.184	0.192	0.135	0.81	0.833	0.951	0.531	0.762	0.435	0.235	0.0895	0.343	0.258	0.115	0.0916
NCI-H1666	1.01	0.933	0.755	0.542	0.666	0.703	0.662	0.603	0.745	0.271	0.235	0.15	0.765	0.232	0.277	0.116	0.9	0.585	0.412	0.378
NCI-H1734	0.976	0.794	0.32	0.127	0.586	0.519	0.165	0.0747	0.66	0.586	0.382	0.0924	0.722	0.588	0.625	0.131	0.473	0.421	0.144	0.113
NCI-H1755	1.01	0.965	0.997	0.801	0.87	0.813	0.938	0.692	0.849	0.827	0.692	0.222	0.931	0.9	0.909	0.24	0.446	0.357	0.433	0.214
NCI-H1792	0.916	0.51	0.762	0.513	0.5	–	0.395	0.169	0.939	0.945	1	1.01	0.621	0.505	0.718	0.858	0.951	0.586	0.612	0.655
NCI-H1915	0.994	–	1	0.606	0.256	0.243	0.231	0.169	0.888	–	0.895	0.759	1.05	–	1.05	0.879	0.337	–	0.317	0.21
NCI-H1944	1.05	0.948	0.959	0.578	0.421	0.412	0.358	0.209	1.07	1.06	1	1.01	0.887	0.736	0.881	0.825	0.223	0.205	0.229	0.155
NCI-H1975	0.988	0.732	0.278	0.181	0.752	0.633	0.337	0.183	0.934	0.835	0.407	0.132	0.646	0.468	0.229	0.11	0.344	0.223	0.163	0.0599
NCI-H1993	0.978	0.871	0.782	0.543	0.967	0.789	0.516	0.393	0.812	0.836	0.603	0.577	0.755	0.662	0.666	0.52	0.577	0.508	0.494	0.453
NCI-H2009	0.889	0.416	0.164	0.124	0.643	0.515	0.128	0.109	1.06	0.644	0.137	0.109	1.21	0.885	0.458	0.14	0.263	0.126	0.112	0.0747
NCI-H2023	0.907	0.305	0.204	0.0874	0.465	0.272	0.143	0.102	0.44	0.248	0.0779	0.0736	0.604	0.236	0.269	0.074	0.421	0.117	0.0528	0.0413
NCI-H2085	0.998	0.873	0.569	0.385	0.874	0.669	0.497	0.282	0.881	0.495	0.339	0.226	0.895	0.621	0.555	0.286	0.242	0.235	0.273	0.235
NCI-H2087	0.987	0.743	0.624	0.313	0.55	0.264	0.334	0.082	0.814	0.531	0.495	0.457	1.2	0.701	0.526	0.566	0.815	0.502	0.41	0.152
